Source: the supplement of paper PMC11451515

Test system: P12-Ichikawa
Assay: cell viability relative to DMSO control; higher = less cytotoxic
Conditions: 48 h
Method in brief: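 NOMO1 or SEM cells were plated at 500 cells/well and P12-Ichikawa cells at 1000 cells/well in 1536-well plates (5 μl), after each leukemia line had been adapted for at least four passages in each medium. Pin dosing delivered library compounds in DMSO at 11 threefold concentrations, 47 μM to 0.79 nM. CellTiter-Glo One luminescence was read after 48 h at 37°C. Viability is reported as a per-plate percentage of DMSO wells, with cell-free wells as background.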

[1] = HPLM + 10% dialyzed FBS, 0.000781 µM
[2] = HPLM + 10% dialyzed FBS, 0.00234 µM
[3] = HPLM + 10% dialyzed FBS, 0.00702 µM
[4] = HPLM + 10% dialyzed FBS, 0.0211 µM
[5] = HPLM + 10% dialyzed FBS, 0.0632 µM
[6] = HPLM + 10% dialyzed FBS, 0.19 µM
[7] = HPLM + 10% dialyzed FBS, 0.569 µM
[8] = HPLM + 10% dialyzed FBS, 1.71 µM
[9] = HPLM + 10% dialyzed FBS, 5.12 µM
[10] = HPLM + 10% dialyzed FBS, 15.4 µM
[11] = HPLM + 10% dialyzed FBS, 46.1 µM
[12] = RPMI 5 mM glucose + 10% FBS, 0.000781 µM
[13] = RPMI 5 mM glucose + 10% FBS, 0.00234 µM
[14] = RPMI 5 mM glucose + 10% FBS, 0.00702 µM
[15] = RPMI 5 mM glucose + 10% FBS, 0.0211 µM
[16] = RPMI 5 mM glucose + 10% FBS, 0.0632 µM
[17] = RPMI 5 mM glucose + 10% FBS, 0.19 µM
[18] = RPMI 5 mM glucose + 10% FBS, 0.569 µM
[19] = RPMI 5 mM glucose + 10% FBS, 1.71 µM
[20] = RPMI 5 mM glucose + 10% FBS, 5.12 µM
[21] = RPMI 5 mM glucose + 10% FBS, 15.4 µM
[22] = RPMI 5 mM glucose + 10% FBS, 46.1 µM
[23] = RPMI 5 mM glucose + 10% dialyzed FBS, 0.000781 µM
[24] = RPMI 5 mM glucose + 10% dialyzed FBS, 0.00234 µM
[25] = RPMI 5 mM glucose + 10% dialyzed FBS, 0.00702 µM
[26] = RPMI 5 mM glucose + 10% dialyzed FBS, 0.0211 µM
[27] = RPMI 5 mM glucose + 10% dialyzed FBS, 0.0632 µM
[28] = RPMI 5 mM glucose + 10% dialyzed FBS, 0.19 µM
[29] = RPMI 5 mM glucose + 10% dialyzed FBS, 0.569 µM
[30] = RPMI 5 mM glucose + 10% dialyzed FBS, 1.71 µM
[31] = RPMI 5 mM glucose + 10% dialyzed FBS, 5.12 µM
[32] = RPMI 5 mM glucose + 10% dialyzed FBS, 15.4 µM
[33] = RPMI 5 mM glucose + 10% dialyzed FBS, 46.1 µM

Compound | cell viability [1] | cell viability [2] | cell viability [3] | cell viability [4] | cell viability [5] | cell viability [6] | cell viability [7] | cell viability [8] | cell viability [9] | cell viability [10] | cell viability [11] | cell viability [12] | cell viability [13] | cell viability [14] | cell viability [15] | cell viability [16] | cell viability [17] | cell viability [18] | cell viability [19] | cell viability [20] | cell viability [21] | cell viability [22] | cell viability [23] | cell viability [24] | cell viability [25] | cell viability [26] | cell viability [27] | cell viability [28] | cell viability [29] | cell viability [30] | cell viability [31] | cell viability [32] | cell viability [33]
CCC(=C/[C@H](C)C/C=C/C(C)=C/[C@@H](C)C(=O)[C@@H](C)[C@H](O)[C@@H](C)C/C(C)=C/C(=O)O)/C=C/[C@@H]1OC(=O)C=C[C@@H]1C | 110% | 114% | 116% | 117% | 118% | 115% | 129% | 109% | 6.55% | 4.69% | 7.83% | 106% | 119% | 111% | 127% | 121% | 118% | 114% | 96.1% | 5.34% | 3.16% | 8.25% | 99.9% | 107% | 109% | 115% | 107% | 111% | 108% | 91.1% | 5.62% | 4.96% | 13.8%
Nc1nc(N)c2nc(-c3cccc(O)c3)c(-c3cccc(O)c3)nc2n1 | 117% | 113% | 113% | 110% | 120% | 117% | 94.6% | 89.9% | 81.2% | 72.2% | 55.2% | 108% | 117% | 113% | 109% | 122% | 112% | 118% | 118% | 101% | 89% | 28.1% | 111% | 116% | 113% | 123% | 120% | 114% | 107% | 116% | 108% | 95.5% | 52.1%
COC1=CC=CC(=C1N)\C2=C\C(=O)C3=C(O2)C=CC=C3 | 110% | 122% | 122% | 133% | 128% | 129% | 134% | 129% | 129% | 133% | 120% |  |  |  |  |  |  |  |  |  |  |  |  |  |  |  |  |  |  |  |  |  | 
CC(C)C[C@H](NC(=O)CNC(=O)c1cc(Cl)ccc1Cl)B(O)O | 91% | 98.3% | 99.7% | 14.2% | 106% | 78% | 6.35% | 5.51% | 4.53% | 3% | 2.23% | 78.7% | 89% | 85.8% | 11.8% | 102% | 73.1% | 6.15% | 5.14% | 4.49% | 3.12% | 1.86% | 88.7% | 88.6% | 91.2% | 21.6% | 100% | 88% | 6.52% | 5.26% | 4.56% | 2.86% | 1.63%
Cc1csc(NC(=O)c2sc3nc4c(c(C(F)(F)F)c3c2N)CCC4)n1 | 88.3% | 102% | 98.1% | 98% | 94.4% | 93.8% | 95% | 91.3% | 90.3% | 84.5% | 83.4% | 87.2% | 100% | 94% | 92.1% | 88.6% | 91.1% | 98.7% | 90.1% | 88.1% | 79.2% | 86.5% | 82.7% | 83.3% | 81.6% | 84.3% | 89.4% | 86.4% | 88.6% | 78.2% | 84.9% | 69.9% | 73.6%
C[C@]12CC[C@H]3[C@@H](C\C=C/4C[C@@H](O)CC[C@]34C)[C@@H]1CCC2=O | 111% | 110% | 117% | 108% | 110% | 115% | 107% | 111% | 58% | 102% | 96.2% |  |  |  |  |  |  |  |  |  |  |  | 111% | 109% | 115% | 108% | 122% | 114% | 105% | 102% | 99.1% | 101% | 98.5%
CN1CCCC(CC1)N2\N=C(CC3=CC=C(Cl)C=C3)/C4=C(C=CC=C4)C2=O (centres undefined) | 112% | 112% | 116% | 111% | 123% | 112% | 119% | 112% | 116% | 94.5% | 51.9% | 109% | 105% | 113% | 116% | 117% | 126% | 123% | 121% | 122% | 114% | 66.2% | 109% | 109% | 109% | 113% | 124% | 128% | 121% | 114% | 118% | 103% | 65.9%
CN(C)CCOc1ccc(-c2nc(-c3ccncc3)c(-c3ccc4c(c3)CC/C4=N\O)[nH]2)cc1 | 103% | 107% | 106% | 100% | 103% | 109% | 106% | 100% | 93.7% | 90.6% | 65.9% | 113% | 108% | 109% | 110% | 109% | 107% | 109% | 103% | 94.5% | 96.4% | 65.6% | 109% | 104% | 114% | 101% | 106% | 105% | 109% | 104% | 96.8% | 84% | 66.7%
CN1\N=C(N)/C2=C[N]([C@@H]3O[C@H](CO[P](O)(O)=O)[C@@H](O)[C@H]3O)C4=C2C1=NC=N4 | 112% | 122% | 110% | 109% | 111% | 96.1% | 77.9% | 53% | 54% | 43.2% | 37.9% | 114% | 110% | 105% | 95.1% | 93.9% | 75.5% | 72% | 60.6% | 52.7% | 44.7% | 41.4% | 119% | 114% | 108% | 113% | 101% | 89.4% | 72.3% | 60.4% | 58.3% | 51% | 41.4%
